Earlier results as cited in patent US7482336B2, “Aminocyclohexanes as dipeptidyl peptidase-IV inhibitors for the treatment or prevention of diabetes” (Merck & Co., Inc., priority 2004, dated 2009).

Assays:
[1] = rats; Transplantation 63: 1495-1500 (1997)
[2] = mouse, cyclophosphamide-induced neutropenia; WO 99/56753
DPP-IV = target: T1, DPP-IV (Homo sapiens, UniProt P27487)
T1 construct: GRF is rapidly degraded in plasma to GRF[3-44]
T1 sequence (P27487 whole entry, species assumed): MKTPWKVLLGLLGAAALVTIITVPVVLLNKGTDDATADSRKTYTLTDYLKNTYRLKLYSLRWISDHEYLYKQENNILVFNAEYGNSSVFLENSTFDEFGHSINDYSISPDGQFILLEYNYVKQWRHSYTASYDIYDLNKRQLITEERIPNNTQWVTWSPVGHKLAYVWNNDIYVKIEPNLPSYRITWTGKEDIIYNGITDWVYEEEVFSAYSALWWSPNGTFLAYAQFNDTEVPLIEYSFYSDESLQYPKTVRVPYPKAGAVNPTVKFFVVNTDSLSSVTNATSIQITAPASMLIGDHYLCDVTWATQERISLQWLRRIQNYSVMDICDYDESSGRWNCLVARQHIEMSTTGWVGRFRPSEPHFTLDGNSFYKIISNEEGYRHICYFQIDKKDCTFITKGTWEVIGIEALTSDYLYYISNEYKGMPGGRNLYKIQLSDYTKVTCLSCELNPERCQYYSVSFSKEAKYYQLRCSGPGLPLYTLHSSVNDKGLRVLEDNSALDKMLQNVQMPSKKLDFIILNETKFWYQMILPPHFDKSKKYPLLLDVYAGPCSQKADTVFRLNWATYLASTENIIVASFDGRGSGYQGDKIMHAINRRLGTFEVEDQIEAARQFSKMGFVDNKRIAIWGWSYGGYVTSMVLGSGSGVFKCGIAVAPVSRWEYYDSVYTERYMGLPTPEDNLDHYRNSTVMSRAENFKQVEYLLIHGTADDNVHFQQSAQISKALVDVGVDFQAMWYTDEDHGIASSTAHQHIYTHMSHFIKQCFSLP

CC(C)N1CCC(c2ccccc2)(c2ccccc2)CC1 [Prodipine, Pro-Pro-diphenyl-phosphonate]
cardiac allograft survival [1]: double cardiac allograft survival in rats from day 7 to day 14

CC(C)[C@H](N)C(=O)N1CCC[C@H]1B(O)O [Val-Boro-Pro]
hematopoiesis [2]: stimulated hematopoiesis

diprotin A
degradation of GRF in plasma to GRF[3-44] (DPP-IV): prevented
